According to patent US8883963B2 (Cadila Healthcare Limited, priority 2007, dated 2014):
Non-standard residues stand in square brackets, D forms with d. Residues, ends and D or L forms follow the SMILES beside them. ξ: configuration not given here. Leu(5,5,5,5',5',5'-F6) = N[C@@H](CC(C(F)(F)F)C(F)(F)F)C(=O)O; ξBip(2'-Et-4'-OMe) = CCc1cc(OC)ccc1-c1ccc(CC(N)C(=O)O)cc1; ξbishPhe(2-F) = NC(CCCc1ccccc1F)C(=O)O; ξαMePhe(2-F) = CC(N)(Cc1ccccc1F)C(=O)O; Aib = CC(C)(N)C(=O)O

Columns and labels:
[1] = Stability in human plasma; type: in vitro ADME; conditions: 2 μM peptidomimetic, pooled human plasma, 37° C.; for half-life at 2 μM: pH 7.8, read-out: half-life (t1/2) when incubated with human plasma
Method: (§1) Reactions were terminated by the addition of TFA/H2O (15 mL, 10% (v/v)). […] The column was equilibrated with TFA/H20, at a flow rate of 1 mL/min.

[2] = Stability in simulated intestinal fluid; type: in vitro ADME; conditions: 2 μM peptidomimetic, simulated intestinal fluid pH 7.5, 37° C.; for half-life at 2 μM: read-out: half-life (t1/2) when incubated with simulated intestinal fluid
Method: as §1

[3] = Stability in liver microsomes; type: in vitro ADME; conditions: 2 μM peptidomimetic, human liver microsomes, 37° C.; for half-life at 2 μM: pH 7.8, read-out: half-life (t1/2) when incubated with liver microsomes
Method: as §1

[4] = Stability in simulated gastric fluid; type: in vitro ADME; conditions: 2 μM peptidomimetic, simulated gastric fluid pH 1.5, 37° C.; for half-life at 2 μM: read-out: half-life (t1/2) when incubated with simulated gastric fluid
Method: as §1

DPP IV = DPP IV (Homo sapiens, UniProt P27487); experiment: Stability against DPP IV enzyme; type: in vitro ADME; conditions: 37° C.; for % degradation of peptidomimetics in 24 h when incubated with DPP-IV enzyme: 2 μM peptidomimetic; for half-life at 2 μM: DPP IV enzyme, pH 7.8, 2 μM peptidomimetic, read-out: half-life (t1/2) when incubated with DPP-IV enzyme
Method: as §1

Human GLP-1 receptor = target: T1, Human GLP-1 receptor (Homo sapiens, UniProt P43220); experiment: In vitro Human GLP-1 R agonist activity (cyclic AMP determination) in CHO/human GLP1R cells; type: cell-based
T1 construct: The full-length cDNA was cloned in pcDNA3.1(+); expressed in transfected cells
Method: The novel peptidomimetics were screened for Human GLP-1 receptor (HGLP-1 R) agonist activity (in vitro), using the cAMP cell-based assay, in stably transfected CHO/human GLP1R cells. […] CHO cells were grown in Ham's F12 medium containing L-Glutamine (2 mM), HEPES (25 mM), NaHCO3 (1.1 g/L) and supplemented with NewBorn Calf Serum (NBCS; 10%), Penicillin (50 U/ml (v/v)) and Streptomycin (50 ug/ml (v/v)). Cells were split every 3 days 1:8.
The cDNA encoding the human GLP-1 receptor was isolated by RT-PCR according to standard protocol. The full-length cDNA was cloned in pcDNA3.1(+). […] Clones expressing the receptor were generated by G418 (800 μg/ml active, Sigma) selection. The stable clones were thereafter maintained at 500 ug/ml (G418). The selected clone was used between passages 9-25 for cAMP assays.
The trypsin was inactivated using Ham's F12 medium containing 10% NBCS and the cells were suspended in 2 ml of complete medium. […] The medium was aspirated off from the 12 well plate and the cells were washed once using Ham's F12 (plain). […] The cells were incubated with the test compounds for 30 min in humidified atmosphere and 37° C. After the incubation, the medium was removed and cells were washed once with plain Ham's F12. Subsequently, the cells were lysed by adding 500 ul of ice cold 0.1 N HCl to each well and shaking for 30 minutes at 200 rpm. The cells were then scrapped, the lysate was collected in micro centrifuge tubes and centrifuged at 12000 rpm for 10 min to remove the debris. 300 ul of supernatant from each micro-centrifuge tube was then removed into a glass tube and dried under N2 for 30 min, for cAMP estimation. The total cAMP was estimated from the sample according to the manufacturer's protocol using Cyclic AMP immunoassay kit (R&D systems, Minneapolis. MN). The remaining supernatant is used to determine the protein concentration using micro BCA (Sigma). Data is calculated as percent of control (Vehicle: water) and expressed as Mean±SD.

human glucagon receptor = target: T2, human glucagon receptor (Homo sapiens, UniProt P47871); experiment: In vitro human glucagon antagonist activity (inhibition of cAMP production) in CHO/human glucagon R cells; type: cell-based; conditions: with saturated concentration of glucagon peptide
T2 construct: The full-length cDNA was cloned in pcDNA3.1 (Invitrogen); expressed in transfected cells
T2 sequence (P47871 26-477): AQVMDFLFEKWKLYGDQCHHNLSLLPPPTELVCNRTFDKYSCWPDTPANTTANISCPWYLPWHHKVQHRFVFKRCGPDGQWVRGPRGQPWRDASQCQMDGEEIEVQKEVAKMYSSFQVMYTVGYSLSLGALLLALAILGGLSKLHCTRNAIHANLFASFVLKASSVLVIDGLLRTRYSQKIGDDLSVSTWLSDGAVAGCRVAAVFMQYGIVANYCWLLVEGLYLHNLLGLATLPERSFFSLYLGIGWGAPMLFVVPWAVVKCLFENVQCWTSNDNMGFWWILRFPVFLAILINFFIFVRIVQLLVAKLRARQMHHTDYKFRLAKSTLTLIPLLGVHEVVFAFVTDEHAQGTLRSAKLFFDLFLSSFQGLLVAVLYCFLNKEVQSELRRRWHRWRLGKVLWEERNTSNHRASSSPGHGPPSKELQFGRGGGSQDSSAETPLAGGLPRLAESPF

T1 sequence (P43220 24-463): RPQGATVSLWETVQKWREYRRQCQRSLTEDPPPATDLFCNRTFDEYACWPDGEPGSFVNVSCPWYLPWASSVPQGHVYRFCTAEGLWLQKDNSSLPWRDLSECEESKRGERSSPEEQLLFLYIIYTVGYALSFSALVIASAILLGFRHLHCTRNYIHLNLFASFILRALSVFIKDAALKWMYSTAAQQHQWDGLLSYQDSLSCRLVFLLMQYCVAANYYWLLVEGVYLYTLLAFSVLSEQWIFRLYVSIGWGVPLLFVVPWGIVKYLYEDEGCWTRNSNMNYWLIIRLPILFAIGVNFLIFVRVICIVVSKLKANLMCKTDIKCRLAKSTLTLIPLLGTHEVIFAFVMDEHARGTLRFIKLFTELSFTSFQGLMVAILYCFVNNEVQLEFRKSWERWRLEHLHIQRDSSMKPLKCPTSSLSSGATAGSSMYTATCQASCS
Chain of DPP IV (P27487 whole entry, species assumed): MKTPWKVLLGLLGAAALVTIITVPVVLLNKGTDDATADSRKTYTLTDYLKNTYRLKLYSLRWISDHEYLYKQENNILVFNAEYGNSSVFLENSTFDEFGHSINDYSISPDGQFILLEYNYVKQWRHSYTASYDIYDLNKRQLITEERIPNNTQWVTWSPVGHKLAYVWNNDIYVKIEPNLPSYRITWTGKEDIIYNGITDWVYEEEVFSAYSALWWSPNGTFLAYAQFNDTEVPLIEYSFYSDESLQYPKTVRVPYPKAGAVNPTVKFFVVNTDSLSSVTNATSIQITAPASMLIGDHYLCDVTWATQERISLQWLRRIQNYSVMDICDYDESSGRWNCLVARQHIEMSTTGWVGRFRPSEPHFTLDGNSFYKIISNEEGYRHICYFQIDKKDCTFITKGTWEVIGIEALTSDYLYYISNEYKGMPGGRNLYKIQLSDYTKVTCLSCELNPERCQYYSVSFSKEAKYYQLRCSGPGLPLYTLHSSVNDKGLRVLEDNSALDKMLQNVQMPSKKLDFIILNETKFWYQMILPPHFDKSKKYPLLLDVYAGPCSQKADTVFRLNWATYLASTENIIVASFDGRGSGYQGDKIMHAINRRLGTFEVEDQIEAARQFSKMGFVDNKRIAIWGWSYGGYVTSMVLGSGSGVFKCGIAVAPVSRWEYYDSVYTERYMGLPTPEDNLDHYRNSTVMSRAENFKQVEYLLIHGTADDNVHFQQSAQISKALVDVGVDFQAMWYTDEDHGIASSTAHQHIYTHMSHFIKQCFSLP

Compound	% degradation of peptidomimetics in 24 h when incubated with human plasma [1] [%]	half-life at 2 μM [1] [min]	% degradation of peptidomimetics in 24 h when incubated with simulated intestinal fluid [2] [%]	half-life at 2 μM [2] [min]	% degradation of peptidomimetics in 24 h when incubated with liver microsomes [3] [%]	half-life at 2 μM [3] [min]	% degradation of peptidomimetics in 24 h when incubated with simulated gastric fluid [4] [%]	half-life at 2 μM [4] [min]	% degradation of peptidomimetics in 24 h when incubated with DPP-IV enzyme (DPP IV) [%]	half-life at 2 μM (DPP IV) [min]	Human GLP-1 R activity (cAMP release), % activity with respect to control (Human GLP-1 receptor; 1 nM test compound) [%]	Human GLP-1 R activity (cAMP release), % activity with respect to control (Human GLP-1 receptor; 10 nM test compound) [%]	Human GLP-1 R activity (cAMP release), % activity with respect to control (Human GLP-1 receptor; 100 nM test compound) [%]	Human GLP-1 R activity (cAMP release), % activity with respect to control (Human GLP-1 receptor; 1 μM test compound) [%]	Human GLP-1 R activity (cAMP release), % activity with respect to control (Human GLP-1 receptor; 10 μM test compound) [%]	half-life (t1/2) when incubated with simulated intestinal fluid [2]	half-life (t1/2) when incubated with simulated gastric fluid [4]	other results
CCc1cc(OC)ccc1-c1ccc(CC(CNC(CCCc2ccccc2)C(N)=O)NC[C@H](CC(=O)O)NC(=O)[C@H](CO)NC(=O)[C@@H](NC(=O)C(C)(Cc2ccccc2F)NC(=O)[C@@H](NC(=O)CNC(=O)[C@H](CCC(N)=O)NC(=O)C(C)(C)NC(=O)[C@H](Cc2c[nH]cn2)NC(=O)OC)[C@H](C)O)[C@H](C)O)cc1 (single isomer, unassigned) [compound 198]	00	> 1440	00	> 1440	82	120	49	240	00	> 1440	82 ± 0.22	87 ± 0.12	92 ± 0.14	99 ± 0.22	99 ± 0.26			
CCc1cc(OC)ccc1-c1ccc(CC(CNC(CCCc2ccccc2)C(N)=O)NC(=O)[C@H](CC(=O)O)NC(=O)[C@H](CO)NC(=O)[C@@H](NC(=O)C(C)(Cc2ccccc2F)NC(=O)[C@@H](NC(=O)CNC(=O)[C@H](CCC(N)=O)NC(=O)C(C)(C)NC(=O)[C@H](Cc2c[nH]cn2)NC(C)=O)[C@H](C)O)[C@H](C)O)cc1 (single isomer, unassigned) [compound 185]	00	> 1440	00	> 1440	84	120	55	240	00	> 1440	46 ± 0.022	85 ± 0.46	90 ± 0.41	99 ± 0.66	99 ± 0.03			
CCc1cc(OC)ccc1-c1ccc(CC(NC(=O)[C@H](CC(=O)O)NC(=O)[C@H](CO)NC(=O)[C@@H](NC(=O)[C@H](Cc2ccccc2)NC(=O)[C@@H](NC(=O)CNC(=O)[C@H](CCC(N)=O)NC(=O)C(C)(C)NC(=O)[C@@H](N)Cc2c[nH]cn2)[C@@H](C)O)[C@@H](C)O)C(=O)NC(CCCc2ccc(OC)cc2Cl)C(N)=O)cc1 (single isomer, unassigned) [compound 68]	75	480	46		83	60	12		74	540	39 ± 0.11	80 ± 0.09	88 ± 0.06	96 ± 0.14	99 ± 0.19	(6) h	(8) h	
CCc1cc(OC)ccc1-c1ccc(CC(NC(=O)[C@H](CC(=O)O)NC(=O)[C@H](CO)NC(=O)[C@@H](NC(=O)[C@H](Cc2ccccc2)NC(=O)[C@@H](NC(=O)CNC(=O)[C@H](CCC(N)=O)NC(=O)[C@H](C)NC(=O)[C@@H](N)Cc2c[nH]cn2)[C@@H](C)O)[C@@H](C)O)C(=O)NC(CCCc2ccc(Cl)cc2C)C(N)=O)cc1 (single isomer, unassigned) [compound 16]	71	480	40		78	60	14		70	540	99 ± 0.11	99 ± 0.13	99 ± 0.16	99 ± 0.06	99 ± 0.10	(6) h	(8) h	
CCc1cc(OC)ccc1-c1ccc(CC(NC(=O)[C@H](CC(=O)O)NC(=O)[C@H](CO)NC(=O)[C@@H](NC(=O)C(C)(Cc2ccccc2F)NC(=O)[C@@H](NC(=O)CNC(=O)[C@H](CC(C(F)(F)F)C(F)(F)F)NC(=O)C(C)(C)NC(=O)[C@H](Cc2c[nH]cn2)NC(C)=O)[C@@H](C)O)[C@@H](C)O)C(=O)NC(CCCc2ccccc2F)C(N)=O)cc1 (some centres unmarked) [compound 212] (Ac-H[Aib][Leu(5,5,5,5',5',5'-F6)]GT[ξαMePhe(2-F)]TSD[ξBip(2'-Et-4'-OMe)][ξbishPhe(2-F)]-NH2)	80		100	30	100	30	100	30	77									half-life (t1/2) when incubated with human plasma [1]: (9) h; Human Glucagon receptor antagonistic activity shown as inhibition of cAMP production of Glucagon peptide (human glucagon receptor; 1 nM test compound): 10 ± 0.12 pmol/ml/μg prt; Human Glucagon receptor antagonistic activity shown as inhibition of cAMP production of Glucagon peptide (human glucagon receptor; 10 nM test compound): 8 ± 0.02 pmol/ml/μg prt; Human Glucagon receptor antagonistic activity shown as inhibition of cAMP production of Glucagon peptide (human glucagon receptor; 100 nM test compound): 6 ± 0.04 pmol/ml/μg prt; Human Glucagon receptor antagonistic activity shown as inhibition of cAMP production of Glucagon peptide (human glucagon receptor; 1 μM test compound): 4 ± 0.05 pmol/ml/μg prt; Human Glucagon receptor antagonistic activity shown as inhibition of cAMP production of Glucagon peptide (human glucagon receptor; 10 μM test compound): 1 ± 0.02 pmol/ml/μg prt
